Values after ≈ are worked out from the molar mass of the structure shown.
Legend:
[1] = system: C. albicans E81022 strain; experiment: Experimental systemic candidal infection model in mice; format: in vivo; details: peroral, 3 times every 4 hours, female ICR mice, observed until 14 days after infection
Procedure: A standing culture of C. albicans E81022 strain was carried out for 48 hours at 30° C. in sabouraud dextrose agar medium (SDA), the recovered fungal cells were suspended in sterilized physiological saline. By counting the fungal number on cytometry plate, the suspension was diluted to 2×10^7 cells/mL with sterilized physiological saline to serve fungal inoculum.
The fungal inoculum was used in the amounts of 0.2 mL to inoculate 4.5 to 5.5 week-old female ICR mice in the tail vein (4×10^6 cells/mouse).
From 0.5 to 1 hour after fungal inoculation, 0.2 mL of agent solution (dissolved or suspended in sterilized physiological saline containing 6.5% dimethyl sulfoxide and 3.5% Tween 80) was administered into the stomach using a peroral probe, 3 times every 4 hours. The agent concentration was 2.5 mg/kg or 10 mg/kg, and the number of animals in one group was 5 animals.
The protective effect was determined by observing life/death until 14 days after infection and calculating the mean survival days.

[2] = system: C. albicans CAF2-1 strain; experiment: Anti-Candida activity, MIC measurement; format: cell-based; details: CAF21STRAIN, C. albicans CAF2-1, RPMI1640, 42-48 hours at 35° C., visual inspection, read-out: Anti-Candida Activity (minimum inhibitory concentration, MIC)
Method in brief: (§1)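 C. albicans CAF2-1 was grown 48 h at 30° C. in SDB and diluted in RPMI1640 to 1.2×10^3 cells/mL. Frozen A. fumigatus Tsukuba was diluted to 4.5×10^3 cells/mL. Compounds, two-fold serially diluted in DMSO from 2.5 mg/mL, were cultured aerobically with fungi for 42-48 h at 35° C.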

[3] = system: A. fumigatus Tsukuba strain; experiment: Anti-Aspergillus activity, MIC measurement; format: cell-based; details: RPMI1640, 42-48 hours at 35° C., visual inspection, read-out: Anti-Aspergillus Activity (minimum inhibitory concentration, MIC)
Method in brief: as §1

Row | SMILES | Mean Survival Days ([1]; 2.5 mg/kg) [days] | Mean Survival Days ([1]; 10 mg/kg) [days] | MIC [2] [µg/mL] | MIC [3] [µg/mL]
1 | Nc1ncccc1-c1cc(Cc2ccc(OCc3cccc(Cl)n3)cc2)no1 [Example 52, 3-(3-(4-(6-Chloro-pyridin-2-ylmethoxy)-benzyl)-isoxazol-5-yl)-pyridin-2-ylamine] | 10.6 | 13.4 | 0.39 (≈ 0.993 µM) | 0.39 (≈ 0.993 µM)
2 | Nc1ccc(-c2cc(Cc3ccc(Cc4ccc(Cl)o4)cc3)no2)c(N)n1 [Example 120, 3-(3-(4-(5-Chloro-furan-2-ylmethyl)-benzyl)-isoxazol-5-yl)-pyridin-2,6-diamine] | 3.2 | 13.4 | 0.39 (≈ 1.02 µM) | 0.2 (≈ 0.525 µM)
3 | Nc1ncccc1-c1cc(Cc2ccc(OCc3ccccc3)cc2)on1 [Example 29, 3-(5-(4-Benzyloxy-benzyl)-isoxazol-3-yl)-pyridin-2-ylamine] | – | 11.4 | 0.39 (≈ 1.09 µM) | 0.2 (≈ 0.56 µM)
4 | Nc1ccc(-c2cc(Cc3ccc(OCc4ccc(F)cn4)cc3)no2)c(N)n1 [Example 112, 3-(3-(4-(5-Fluoro-pyridin-2-ylmethoxy)-benzyl)-isoxazol-5-yl)-pyridin-2,6-diamine] | – | 12.2 | 0.78 (≈ 1.99 µM) | 0.39 (≈ 0.996 µM)
5 | CCCCOCc1ccc(Cn2cc(-c3cccnc3N)cn2)cc1 [Example 33, 3-(1-(4-Butoxymethyl-benzyl)-1H-pyrazol-4-yl)-pyridin-2-ylamine] | 2.4 | 8.4 | 0.39 (≈ 1.16 µM) | 0.78 (≈ 2.32 µM)
6 | Nc1ncccc1-c1cc(Cc2ccc(CNc3ccccc3)cc2)no1 [Example 73, 3-(3-(4-Phenylaminomethyl-benzyl)-isoxazol-5-yl)-pyridin-2-ylamine] | 4.4 | 12.6 | 0.1 (≈ 0.281 µM) | 0.39 (≈ 1.09 µM)
7 | Nc1ncccc1-c1cc(Cc2ccc(COc3ccccc3)nc2)no1 [Example 54, 3-(3-(6-Phenoxymethyl-pyridin-3-ylmethyl)-isoxazol-5-yl)-pyridin-2-ylamine] | 13.0 | 13.6 | 0.1 (≈ 0.279 µM) | 0.39 (≈ 1.09 µM)
8 | Nc1ncccc1-c1cc(Cc2ccc(OCc3ccccn3)cc2)no1 [Example 9, 3-(3-(4-(Pyridin-2-ylmethoxy)-benzyl)-isoxazol-5-yl)-pyridin-2-ylamine] | 12.8 | 14.0 | 0.2 (≈ 0.558 µM) | 0.39 (≈ 1.09 µM)
9 | Cc1ccnc(COc2ccc(Cc3cc(-c4cccnc4N)on3)cc2)c1 [Example 11, 3-(3-(4-(4-Methyl-pyridin-2-ylmethoxy)-benzyl)-isoxazol-5-yl)-pyridin-2-ylamine] | 8.2 | 13.6 | 0.1 (≈ 0.269 µM) | 0.39 (≈ 1.05 µM)
10 | Nc1ccc(-c2cc(Cc3ccc(OCc4ccccc4)nc3)no2)c(N)n1 [Example 25, 3-(3-(6-benzyloxy-pyridin-3-ylmethyl)-isoxazol-5-yl)-pyridine-2,6-diamine] | 12.2 | – | 0.2 (≈ 0.536 µM) | 0.2 (≈ 0.536 µM)
11 | COC(=O)c1cccc(COc2ccc(Cc3cc(-c4ccc(N)nc4N)on3)cc2)c1 [Example 213, 3-(4-(5-(2,6-Diamino-pyridin-3-yl)-isoxazol-3-ylmethyl)-phenoxymethyl)benzoic acid methyl ester] | – | – | 6.25 (≈ 14.5 µM) | 1.56 (≈ 3.62 µM)
12 | Nc1ncccc1-c1cc(Cc2ccc(OCc3ccncc3)cc2)no1 [Example 49, 3-(3-(4-(Pyridin-4-ylmethoxy)-benzyl)-isoxazol-5-yl)-pyridin-2-ylamine] | – | – | 0.05 (≈ 0.14 µM) | 0.39 (≈ 1.09 µM)
13 | Nc1ncccc1-c1cc(Cc2ccc(OCc3ccccn3)c(F)c2)no1 [Example 87, 3-(3-(3-Fluoro-4-(pyridin-2-ylmethoxy)-benzyl)-isoxazol-5-yl)-pyridin-2-ylamine] | – | – | 0.2 (≈ 0.531 µM) | 0.78 (≈ 2.07 µM)
14 | CCOCc1ccc(Cn2cc(-c3cccnc3N)cn2)cc1 [Example 196, 3-(1-(4-Ethoxymethyl-benzyl)-1H-pyrazol-4-yl)-pyridin-2-ylamine] | – | – | 6.25 (≈ 20.3 µM) | 6.25 (≈ 20.3 µM)
15 | Nc1ccc(-c2cc(Cc3ccc(OCc4ccccn4)cc3)no2)cn1 [Example 177, 5-(3-(4-(Pyridin-2-ylmethoxy)-benzyl)-isoxazol-5-yl)-pyridin-2-ylamine] | – | – | 0.39 (≈ 1.09 µM) | 0.78 (≈ 2.18 µM)
16 | Nc1ccc(-c2cc(Cc3ccc(Oc4ccccc4F)nc3)no2)cn1 [Example 185, 5-(3-(6-(2-Fluoro-phenoxy)-pyridin-3-ylmethyl)-isoxazol-5-yl)-pyridin-2-ylamine] | – | – | 0.78 (≈ 2.15 µM) | 0.78 (≈ 2.15 µM)
17 | Nc1ncccc1-c1cc(Cc2ccn(Cc3ccccc3)c2)no1 [Example 57, 3-(3-(1-Benzyl-1H-pyrrol-3-ylmethyl)-isoxazol-5-yl)-pyridin-2-ylamine] | – | – | 0.05 (≈ 0.151 µM) | 0.2 (≈ 0.605 µM)
18 | Nc1ccc(-c2cc(Cc3ccc(OCC4CC4)cc3)no2)c(N)n1 [Example 21, 3-(3-(4-Cyclopropylmethoxy-benzyl)-isoxazol-5-yl)-pyridin-2,6-diamine] | – | – | 1.56 (≈ 4.64 µM) | 0.78 (≈ 2.32 µM)
19 | Nc1ncccc1-c1cc(Cc2ccc(OCc3ccc(Cl)cn3)cc2)no1 [Example 63, 3-(3-(4-(5-Chloro-pyridin-2-ylmethoxy)-benzyl)-isoxazol-5-yl)-pyridin-2-ylamine] | – | – | 0.78 (≈ 1.99 µM) | 0.78 (≈ 1.99 µM)
20 | Nc1ccc(-c2cc(Cc3ccc(Oc4cccnc4)nc3)no2)c(N)n1 [Example 164, 3-(3-(6-(Pyridin-3-yloxy)-pyridin-3-ylmethyl)-isoxazol-5-yl)-pyridin-2,6-diamine] | – | – | 6.25 (≈ 17.3 µM) | 6.25 (≈ 17.3 µM)
21 | CN(C)c1ncccc1-c1cc(Cc2ccc(OCc3ccccc3)cc2)no1 [Example 228, (3-(3-(4-Benzyloxy-benzyl)-isoxazol-5-yl)-pyridin-2-yl)-dimethyl-amine] | – | – | 0.78 (≈ 2.02 µM) | 0.78 (≈ 2.02 µM)
22 | Nc1ncccc1-c1cc(Cc2ccc(CCc3ccccn3)cc2)no1 [Example 93, 3-(3-(4-(2-Pyridin-2-yl-ethyl)-benzyl)-isoxazol-5-yl)-pyridin-2-ylamine] | – | – | 0.2 (≈ 0.561 µM) | 1.56 (≈ 4.38 µM)
23 | Nc1ccc(-c2cc(Cc3ccc(Oc4ccccc4F)nc3)no2)c(N)n1 [Example 134, 3-(3-(6-(2-Fluoro-phenoxy)-pyridin-3-ylmethyl)-isoxazol-5-yl)-pyridin-2,6-diamine] | – | – | 0.39 (≈ 1.03 µM) | 0.78 (≈ 2.07 µM)
24 | Nc1ncccc1-c1cc(Cc2ccc(Br)cc2)no1 [Example 207, 3-(3-(4-bromo-benzyl)-isoxazol-5-yl)-pyridin-2-ylamine] | – | – | 25 (≈ 75.7 µM) | 6.25 (≈ 18.9 µM)
25 | CCCCOc1cccc(Cc2cc(-c3cccnc3N)on2)c1 [Example 65, 3-(3-(3-Butoxy-benzyl)-isoxazol-5-yl)-pyridin-2-ylamine] | – | – | 0.39 (≈ 1.21 µM) | 0.78 (≈ 2.41 µM)
26 | c1ccc(COc2ccc(Cc3cc(-c4cccnc4)on3)cc2)nc1 [Example 203, 3-(3-(4-(Pyridin-2-ylmethoxy)-benzyl)-isoxazol-5-yl)-pyridine] | – | – | 0.2 (≈ 0.582 µM) | 1.56 (≈ 4.54 µM)
27 | Nc1ccc(-c2cc(Cc3ccc(OCc4ccncc4)cc3)no2)c(N)n1 [Example 107, 3-(3-(4-(Pyridin-4-ylmethoxy)-benzyl)-isoxazol-5-yl)-pyridin-2,6-diamine] | – | – | 0.78 (≈ 2.09 µM) | 0.78 (≈ 2.09 µM)

From US8158657B2, “Heterocycles substituted pyridine derivatives and antifungal agent containing thereof” (Eisai R&D Management Co., Ltd., priority 2005, dated 2012)
